In US8440790B2, “Crystal structure of the CCZ-LZ domain of NEMO” (Les Laboratoires Servier, priority 2008, dated 2013):

What was measured:
NF-κB pathway = experiment: Functional complementation in NEMO-deficient mouse embryo fibroblasts (Igκ-luciferase reporter, TNFα stimulation); format: cell-based; conditions: NEMO-deficient MEF transiently transfected with NEMO variant and Igκ-luciferase reporter; TNFα stimulation for 24 hours; compared with wild-type NEMO
Text: The capabilities of the wild-type NEMO protein and of the above-defined mutant NEMO proteins in restoring activation of the NF-κB pathway in response to the proinflammatory cytokine TNF-α are compared and illustrated in FIG. 5. For that purpose, NEMO-deficient mouse embryo fibroblasts (MEF) are transiently co-transfected on the one hand with the plasmid coding for the Igκ-luciferase reporter gene and on the other hand with the plasmids coding for the various proteins, and then stimulated with TNFα for 24 hours. The wild-type protein completely restores the NF-κB pathway whereas TNFα-dependent activation of the NF-κB pathway is affected by the mutant proteins in differing degrees.
NEMO-deficient mouse embryo fibroblasts (MEF) are cultured in cell culture jars and transiently transfected with a mixture containing: 0.2 μg of a plasmid pEF1 coding for β-galactosidase, 0.5 μg of a plasmid containing the Igk-luciferase reporter gene and 2 μg of plasmids expressing the different variants of NEMO. Twenty-four hours after transfection, the cells are activated with TNFα (20 ng/ml) for 24 hours. The cells are then recovered and then lysed in 110 μl of a buffer of 25 mM Tris/Phosphate pH 7.8, 8 mM MgCl2, 1% Triton, 1 mM dithiothreitol, 15% to glycerol to which a cocktail of proteases is added (Roche). […] The activity of the reporter gene is measured.

[1] = Gel filtration of the wild-type CC2-LZ protein and the mutant F312A; format: physicochemical; conditions: CC2-LZ domain of NEMO; compared with wild-type CC2-LZ protein
Experimental: The gel filtration experiments are carried out at 4° C. on a Superdex 75 HR 10/30 column (Amersham Biosciences). The column is equilibrated in a buffer of Tris/HCl 50 mM pH7.5, NaCl 200 mM, DTE 0.2 mM at 4° C. with a flow rate of 0.5 ml/min. A sample of constant volume (200 μl), at a concentration of 0.3 μM, is injected onto the column at a rate of 0.5 ml/min. The proteins are diluted in the equilibration buffer of the column and allowed to stand at 4° C. for 2 hours before injection in order to allow them to equilibrate. In order to detect elution of the proteins, an RF-10 AXL spectrofluorimeter (Shimadzu) is connected on-line to the AKTA apparatus. The intrinsic fluorescence is recorded, measuring the emission of fluorescence of the tyrosine residues at 310 nm after excitation at 280 nm.

Substance	inhibition of TNFα-dependent activation of the NF-κB pathway (NF-κB pathway)	effect of the mutation on the stability of the dimer (elution profile on gel filtration) [1]
A323P: human NEMO protein with point mutation Ala323Pro (position 316 in the mouse), cause of incontinentia pigmenti	95%	–
F312A: human NEMO / CC2-LZ protein with point mutation Phe312Ala (position 305 in the mouse), within the ubiquitin-binding site	78%	does not affect the stability of the dimer
